Results from PMC11357256, “Selectivity Screening and Structure–Cytotoxic Activity Observations of Selected Oleanolic Acid (OA)-Type Saponins from the Amaranthaceae Family on a Wiade Panel of Human Cancer Cell Lines” (Molecules, 2024).

Assays:
TPC-1 = test: MTT cell viability assay, TPC-1 papillary thyroid carcinoma cells; format: cell-based, human; settings: for IC50: Homo sapiens, TPC1
Text: (§1) Cell lines used in the study were grouped as follows: skin panel (melanomas: HTB140, derived from metastatic site: lymph node, ATCC Hs 294 T; malignant A375, ATCC CRL-1619; stage I primary WM793, RRID:CVCL 8787; skin keratinocytes HaCaT); prostate panel (prostate carcinomas: Du145, derived from metastatic site: brain, ATCC HTB-81; grade IV PC3, derived from metastatic site: bone, ATCC CRL-1435, LNCaP, derived from the metastatic site: lymph node, ATCC CRL-1740; prostate epithelial, PNT2, ECACC 95012613); gastrointestinal panel (colorectal adenocarcinomas: Caco2, ATCC HTB-37, HT29, ATCC HTB-38, DLD-1, ATCC CCL-221, HCT116, ATCC CCL-247, and colon epithelial cells CCD 841 CoN, ATCC CRL-1790; hepatocellular carcinoma HepG2, ATCC HB-8065); thyroid panel (follicular thyroid carcinoma FTC133, ECACC 9406090, undifferentiated thyroid carcinoma 8505C, ECACC 94090184, papillary thyroid carcinoma TPC-1, SCC147, normal thyroid follicular epithelial Nthy-ori 3–1, ECACC 90011609); and breast panel (ER-positive breast adenocarcinoma MCF7, ATCC HTB-22; ER-negative breast adenocarcinoma MDA-MB-231, ATCC HTB-26; breast epithelial MCF10A, ATCC CRL-10317). Cells were grown under standard conditions (37 °C, 5% CO2, relative humidity), and culture media (DMEM/F12 for PNT2, WM 793, HT29, PC3, FTC133, 8505 C, MDA-MB-231, TPC-1; DMEM Low Glucose for DU145; DMEM High Glucose for HTB140, A375, HaCaT; MEM with NEAA for Caco2 and MCF7; RPMI1640 with sodium pyruvate for LNCaP; DMEM/F12 with 20 ng/mL epidermal growth factor (EGF), 10 μg/mL insulin, 0.5 μg/mL hydrocortisone, 100 ng/mL cholera toxin) for MCF10A) supplemented with 10% fetal bovine serum (FBS) or 5% donor horse serum for MCF10A, and 1% antibiotics solution (10,000 U penicillin and 10 mg streptomycin/mL) […], as previously described. All cell lines, culture media, and supplements were from Sigma-Aldrich (Germany).
(§2) The cells were seeded in 96-well plates (1.5 × 10^4 cells/well). After 24 h, fresh medium was added, containing the tested compounds (0.5–100 μg/mL) and incubated for 24 or 48 h. Cell viability was determined by MTT assay, according to the manufacturer’s instructions, as described previously. Each experiment was performed in triplicate. The absorbance was measured at 570 nm using a Biotek Synergy microplate reader (BioTek Instruments Inc., Winooski, VT, USA). Cell viability was expressed as a percent of control (untreated cells). Doxorubicin was used as a reference drug.
(§3) The selectivity index (SI) was calculated from the following formula:SI = IC50 of compound in a normal cell line/IC50 of compound in cancer cell line.IC50, half maximal inhibitory concentration, is a concentration required to kill 50% of the cells.

Caco-2 = test: MTT cell viability assay, Caco-2 colon cancer cells; format: cell-based; settings: Homo sapiens
Text: as §1, §2

HTB-140 = test: MTT cell viability assay, HTB-140 metastatic melanoma cells; format: cell-based, human; settings: for IC50: Homo sapiens
Text: as §1, §2, §3

Du-145 = test: MTT cell viability assay, Du-145 prostate carcinoma cells; format: cell-based; settings: Homo sapiens
Text: as §1, §2

CCD 841 CoN = test: MTT cell viability assay, CCD 841 CoN normal colon epithelial cells; format: cell-based; settings: Homo sapiens
Text: as §1, §2

PNT2 = test: MTT cell viability assay, PNT2 normal prostate epithelial cells; format: cell-based; settings: Homo sapiens
Text: as §1, §2

Nthy-ori 3-1 = test: MTT cell viability assay, Nthy-ori 3-1 normal thyroid epithelial cells; format: cell-based; settings: Homo sapiens
Text: as §1, §2

WM793 = test: MTT cell viability assay, WM793 primary melanoma cells; format: cell-based, human; settings: for IC50: Homo sapiens
Text: as §1, §2, §3

DLD-1 = test: MTT cell viability assay, DLD-1 colon cancer cells; format: cell-based; settings: Homo sapiens
Text: as §1, §2

HepG2 = test: MTT cell viability assay, HepG2 hepatocellular carcinoma cells; format: cell-based; settings: Homo sapiens
Text: as §1, §2

MCF10A = test: MTT cell viability assay, MCF10A normal breast epithelial cells; format: cell-based; settings: Homo sapiens, MCF-10A
Text: as §1, §2

FTC133 = test: MTT cell viability assay, FTC133 follicular thyroid carcinoma cells; format: cell-based, human; settings: for IC50: Homo sapiens, FTC-133
Text: as §1, §2, §3

A375 = test: MTT cell viability assay, A375 malignant melanoma cells; format: cell-based, human; settings: for IC50: Homo sapiens, A-375
Text: as §1, §2, §3

PC3 = test: MTT cell viability assay, PC3 prostate carcinoma cells; format: cell-based; settings: Homo sapiens, PC-3
Text: as §1, §2

MDA-MB-231 = test: MTT cell viability assay, MDA-MB-231 breast adenocarcinoma cells; format: cell-based; settings: Homo sapiens
Text: as §1, §2

HCT116 = test: MTT cell viability assay, HCT116 colon cancer cells; format: cell-based; settings: Homo sapiens, HCT-116
Text: as §1, §2

8505C = test: MTT cell viability assay, 8505C undifferentiated thyroid carcinoma cells; format: cell-based, human; settings: Homo sapiens, 8505C
Text: as §1, §2, §3

LNCaP = test: MTT cell viability assay, LNCaP prostate adenocarcinoma cells; format: cell-based; settings: Homo sapiens
Text: as §1, §2

HaCaT = test: MTT cell viability assay, HaCaT keratinocytes; format: cell-based; settings: Homo sapiens
Text: as §1, §2

HT29 = test: MTT cell viability assay, HT29 colorectal adenocarcinoma cells; format: cell-based; settings: Homo sapiens, HT-29
Text: as §1, §2

MCF7 = test: MTT cell viability assay, MCF7 breast adenocarcinoma cells; format: cell-based; settings: Homo sapiens
Text: as §1, §2

## CC1(C)CC[C@]2(C(=O)O[C@@H]3O[C@H](CO)[C@@H](O)[C@H](O)[C@H]3O)CC[C@]3(C)C(=CC[C@@H]4[C@@]5(C)CC[C@H](O[C@@H]6O[C@H](C(=O)O)[C@@H](O)[C@H](O)[C@H]6O)C(C)(C)[C@@H]5CC[C@]43C)[C@@H]2C1 [ChIVa, 3-O-β-D-glucuronopyranosyl oleanolic acid 28-O-β-D-glucopyranosyl ester]
TPC-1; TPC-1, 24 h
  IC50: > 100 µg/mL
TPC-1; TPC-1, 48 h
  IC50: 81.8 µg/mL
TPC-1; IC50 Nthy-ori 3-1 / IC50 TPC-1, 48 h
  Selectivity Index (SI): > 1.2
Caco-2; Caco-2, 24 h
  IC50: 69 µg/mL
Caco-2; Caco-2, 48 h
  IC50: 15.8 µg/mL
HTB-140; HTB-140, 24 h
  IC50: 15 µg/mL
HTB-140; HTB-140, 48 h
  IC50: 8.7 µg/mL
HTB-140; IC50 HaCaT / IC50 HTB-140, 24 h
  Selectivity Index (SI): 0.5
HTB-140; IC50 HaCaT / IC50 HTB-140, 48 h
  Selectivity Index (SI): 0.4
Du-145; DU-145, 24 h
  IC50: 22.9 µg/mL
Du-145; DU-145, 48 h
  IC50: 9.1 µg/mL
CCD 841 CoN; 24 h
  IC50: > 100 µg/mL
CCD 841 CoN; 48 h
  IC50: > 100 µg/mL
PNT2; 24 h
  IC50: > 100 µg/mL
PNT2; 48 h
  IC50: > 100 µg/mL
Nthy-ori 3-1; 24 h
  IC50: > 100 µg/mL
Nthy-ori 3-1; 48 h
  IC50: > 100 µg/mL
WM793; WM793, 24 h
  IC50: 18.5 µg/mL
WM793; WM793, 48 h
  IC50: 4.4 µg/mL
WM793; IC50 HaCaT / IC50 WM793, 24 h
  Selectivity Index (SI): 0.4
WM793; IC50 HaCaT / IC50 WM793, 48 h
  Selectivity Index (SI): 0.7
DLD-1; DLD-1, 24 h
  IC50: > 100 µg/mL
DLD-1; DLD-1, 48 h
  IC50: 50.3 µg/mL
HepG2; HepG2, 24 h
  IC50: 30 µg/mL
HepG2; HepG2, 48 h
  IC50: 20.9 µg/mL
MCF10A; 24 h
  IC50: > 100 µg/mL
MCF10A; 48 h
  IC50: > 100 µg/mL
FTC133; FTC133, 24 h
  IC50: 8.5 µg/mL
FTC133; FTC133, 48 h
  IC50: 4 µg/mL
FTC133; IC50 Nthy-ori 3-1 / IC50 FTC133, 24 h
  Selectivity Index (SI): > 11.76
FTC133; IC50 Nthy-ori 3-1 / IC50 FTC133, 48 h
  Selectivity Index (SI): > 25.1
A375; A375, 24 h
  IC50: 1.6 µg/mL
A375; A375, 48 h
  IC50: 0.6 µg/mL
A375; IC50 HaCaT / IC50 A375, 24 h
  Selectivity Index (SI): 4.6
PC3; PC3, 24 h
  IC50: 45.6 µg/mL
PC3; PC3, 48 h
  IC50: 22.8 µg/mL
MDA-MB-231; MDA-MB-231, 24 h
  IC50: > 100 µg/mL
MDA-MB-231; MDA-MB-231, 48 h
  IC50: 98.1 µg/mL
HCT116; HCT116, 24 h
  IC50: > 100 µg/mL
HCT116; HCT116, 48 h
  IC50: 78.2 µg/mL
8505C; 24 h
  IC50: > 100 µg/mL
8505C; 48 h
  IC50: > 100 µg/mL
LNCaP; 24 h
  IC50: > 100 µg/mL
LNCaP; 48 h
  IC50: > 100 µg/mL
HaCaT; 24 h
  IC50: 7.3 µg/mL
HaCaT; 48 h
  IC50: 3.1 µg/mL
HT29; HT29, 24 h
  IC50: 14.9 µg/mL
HT29; HT29, 48 h
  IC50: 5.6 µg/mL
MCF7; MCF7, 24 h
  IC50: > 100 µg/mL
MCF7; MCF7, 48 h
  IC50: > 100 µg/mL
MCF7; MCF7, MCF-7, incubation time not stated
  IC50: > 100 µg/mL
